{
  "source": "patent US20170153225A1",
  "about": "“A METHOD OF SCREENING FOR A COMPOUND CAPABLE OF STIMULATING GLUCOSE TRANSPORT INTO BROWN AND/OR BRITE ADIPOCYTES OF A MAMMAL, A KIT FOR USE IN SUCH A METHOD” (ATROGI AB, priority 2014, published 2017)",
  "key": {"GLUT1 [1]": {"system": "GLUT1", "experiment": "Western blot of total GLUT1 protein content", "format": "cell-based, NMRI mice", "conditions": "isoproterenol 1 μM, 0-2 h; for total GLUT1 protein content (Western blot): in presence or absence of 1 μM KU 0063794, p=0.0067 and p=0.0017, n=3", "procedure": "Brown adipocytes were grown as described in Example 1 and differentiated in 12 well plates and serum starved the night prior to experiment. On day 7 the cells were challenged with inhibitors for 30 min before being stimulated with drugs as indicated. Lysates were prepared in prewarmed (65° C.) sample buffer (62.5 mM Tris pH 6.8, 2% SDS, 10% glycerol, 50 mM dithiothreitol, 0.1% bromophenol blue) and boiled for 5 min. Samples were loaded on a 8 or 12% acrylamide gel and separated for 2 hours at 100 V. Proteins were transferred to Hybond-P polyvinylidene difluoride membranes (pore size […]; Amersham Biosciences, Arlington Heights, Ill.). The primary GLUT1 antibody (diluted 1:1000) was from AbCam (Cambridge, UK). The primary antibody was detected using a secondary antibody (horseradish peroxidase-linked anti-rabbit IgG, Cell Signaling) diluted 1:2000 and enhanced chemiluminescence (ECL, Amersham Biosciences). Images were quantified using Image J 1.46r. […] Western blot of GLUT1 protein content in mature brown adipocytes was quantified after isoproterenol stimulation (1 μM, 0-2 h) in presence or absence of 1 μM KU 0063794."}, "BAT": {"system": "BAT", "experiment": "Glucose uptake in brown fat (BAT) in vivo, [3H]-2DG", "set-up": "species or system FVB mice", "conditions": "n=5", "procedure": "Groups of FVB mice were fasted for 5 hours prior to study and anesthetized with pentobarbital (60 mg per kg of body weight, i.p.). Mice were then injected with a specific mTOR inhibitor KU 0063794 (10 mg/kg i.p.) or DMSO as control. Isoproterenol (1 mg/kg ip) or saline were injected after 10 min and [^3H]-2DG (130 μCi/kg body weight ip) 20 min prior to end time. BAT was dissected […], and tissues digested with 0.5M NaOH overnight. Glucose uptake was measured by liquid scintillation counting. All experiments were conducted with ethical permission (N388/12) from the North Stockholm Animal Ethics Committee."}, "mTOR": {"system": "mTOR", "experiment": "mTOR phosphorylation at Ser2481 and Ser2448 by western blot", "format": "cell-based", "conditions": "1 μM isoprenaline, 2 hours", "from_the_text": "The immunoblot is representative of three experiments performed."}, "[2]": {"system": "mature brown adipocytes primary cultures", "experiment": "2-deoxy-D-[1-3H]-glucose uptake in vitro in mature primary brown adipocytes", "format": "cell-based, NMRI mice", "conditions": "for glucose uptake: isoproterenol 1 μM, 2 hours, p=0.0042, n=4-6", "procedure": "Brown fat primary cells were isolated from NMRI mice (3-4 week-old) purchased from Nova-SCB AB, Sweden. All experiments were conducted with ethical permission (N388/12) from the North Stockholm Animal Ethics Committee. Animals were euthanized by CO2, and brown fat precursor cells were isolated from the intrascapular, axillary and cervical brown adipocyte depots as previously described (Hutchinson, Bengtsson 2006, Hutchinson, Chernogubova et al. 2006). The tissue was minced and transferred to a HEPES-buffered solution (pH 7.4) containing 0.2% (wt/vol) crude collagenase type II. Routinely, tissue from 6 mice was digested in 10 ml of the HEPES-buffered solution. The tissue was digested for 30 minutes at 37° C., with constant vortexing. The digest was filtered through a 250 μm filter and the solution incubated on ice for 15 min to allow the mature adipocytes and fat droplets to float. The infranatant was filtered through a 25 μm filter, centrifuged (10 min, 700×g), the pellet resuspended in DMEM (4.5 g D-glucose/l) and recentrifuged. The pellet was finally resuspended in 0.5 ml cell culture medium per mouse dissected. The cell culture medium consisted of DMEM (4.5 g D-glucose/l) supplemented with 10% newborn calf serum, 2.4 nM insulin, […], 50 IU/ml penicillin, 50 μg/ml streptomycin and 25 μg/ml sodium ascorbate. Aliquots of 0.1 ml cell suspension were cultured in 12-well culture dishes with 0.9 ml of cell culture medium. Cultures were incubated in a 37° C. humidified atmosphere of 8% CO2 in air. On days 1, 3 and 5, the cell culture medium was renewed. Cells were used on day 7.\nGlucose uptake in vitro was performed as previously described (Yamamoto, Hutchinson et al. 2007). On day 7 the cells were treated with inhibitors for 30 min before addition of isoproterenol for 2 hours, unless otherwise indicated. […] Reactions were terminated by washing in ice-cold PBS, cells lysed (400 μl of 0.2 M NaOH, 1 h at 60° C.) and the incorporated radioactivity determined by liquid scintillation counting."}, "GLUT1 [3]": {"system": "GLUT1", "experiment": "Immunocytochemistry of total cellular GLUT1 in permeabilized cells", "format": "cell-based, NMRI mice", "conditions": "isoproterenol 1 μM, 2 h", "procedure": "(§1) Brown adipocytes were isolated as described in Example 1 and seeded onto BD Falcon culture chamber slides (BD Biosciences, Franklin Lakes, N.J.). Cells were serum starved the night prior to experiment. On day 7 the cells were challenged with inhibitors for 30 min before being stimulated for 1-2 hours with drugs as indicated. Cells were washed with warm PBS and fixed for 15 min (4% formaldehyde in PBS). Cells were washed with PBS and formaldehyde quenched with 50 mM glycine in PBS, and washed three times for 5 min each with PBS. Cells were blocked for 1 h at room temperature with 8% BSA in PBS, and washed three times for 5 min each with PBS. For permeabilizing the cells, the cells were treated with 10% triton x in PBS (dilution 1:40) before blocking. Primary antibody (2 μg/ml GLUT1 antibody (AbCam, Cambridge, UK), 1.5% BSA in PBS) was added and slides incubated over night at 4° C. The next day the cells were washed three times for 5 min each with PBS. Slides were then incubated with secondary antibody (3 μg/ml alexa488 conjugated goat antirabbit IgG (Invitrogen, Paisley, UK), 3% BSA in PBS) and washed three times for 5 min each with PBS. Slides were mounted with mounting media (8% 1,4-diazabicyclooctane, 75% glycerol in PBS) and sealed."}, "GLUT1 [4]": {"system": "GLUT1", "experiment": "Immunocytochemistry of plasma membrane GLUT1 (translocation) in non-permeabilized cells", "format": "cell-based, NMRI mice", "conditions": "KU 0063794 1 μM, isoproterenol 1 μM, 2 h, p=0.0153, n=3", "procedure": "as §1"}, "mouse rictor": {"system": "mouse rictor", "experiment": "Rictor knock down with siRNA, then glucose uptake or western blotting", "format": "cell-based", "conditions": "2.5 μg/ml siRNA", "procedure": "Primary brown adipocytes were used on day 3 and transfected with K2 Transfection System (Biontex laboratories) according to manufacturer's protocol using 2.5 μg/ml of siRNA (sequence: […]) directed against mouse rictor (from Sigma). 24 h after transfection, glucose uptake or western blotting was performed as described above."}},
  "data": [
    {"compound": "CC(C)NCC(O)c1ccc(O)c(O)c1", "note": "(centres unmarked) [Isoproterenol]", "values": [
      {"measurement": "total GLUT1 protein content (Western blot)", "setting": "GLUT1 [1]", "value": "significantly increase the amount of GLUT1"},
      {"measurement": "total GLUT1 protein content (Western blot)", "setting": "GLUT1 [1]; listed as isoproterenol", "value": "increased total GLUT1 content"},
      {"measurement": "glucose uptake in brown fat in vivo", "setting": "BAT; isoproterenol 1 mg/kg ip", "value": "stimulated glucose uptake in vivo"},
      {"measurement": "mTOR phosphorylation at Ser2448", "setting": "mTOR", "value": "not at Ser2448"},
      {"measurement": "glucose uptake", "setting": "[2]", "value": "increase glucose uptake"},
      {"measurement": "glucose uptake", "setting": "[2]; listed as isoproterenol", "value": "increases glucose uptake"},
      {"measurement": "total cellular GLUT1 (de novo synthesis), permeabilized cells", "setting": "GLUT1 [3]; p=0.0334, n=3", "value": "de novo synthesis can be stimulated"}
    ]},
    {"compound": "COc1ccc(-c2ccc3c(N4CCOCC4)nc(N4C[C@@H](C)O[C@@H](C)C4)nc3n2)cc1CO", "note": "[KU 0063794]", "values": [
      {"measurement": "inhibition of isoproterenol-stimulated translocation of GLUT1 to the plasma membrane", "setting": "GLUT1 [4]", "value": "prevents the translocation of GLUT1 to the plasma membrane"},
      {"measurement": "effect of mTOR inhibitor on isoproterenol-increased GLUT1 content (Western blot)", "setting": "GLUT1 [1]; KU 0063794 1 μM", "value": "mTOR independent manner"},
      {"measurement": "reduction of isoproterenol stimulated glucose uptake in vivo", "setting": "BAT; KU 0063794 before isoproterenol 1 mg/kg ip, p=0.0175", "value": "significantly reduced"},
      {"measurement": "effect of mTOR inhibitor on stimulated de novo synthesis of GLUT1, permeabilized cells", "setting": "GLUT1 [3]; KU 0063794 1 μM", "value": "not inhibited by inhibition of mTOR"}
    ]},
    {"compound": "CCC(=O)N1CCN(c2ccc(-n3c(=O)ccc4cnc5ccc(-c6cnc7ccccc7c6)cc5c43)cc2C(F)(F)F)CC1", "note": "[Torin-1]", "values": [
      {"measurement": "inhibition of isoproterenol stimulated glucose uptake", "setting": "[2]; Torin-1 1 μM, 30 min before isoproterenol 1 μM", "value": "full inhibition of glucose uptake"}
    ]},
    {"compound": "siRNA directed against mouse rictor: siRNA (sequence: CAGAAAGCAATCGCAACTCACCACA) directed against mouse rictor (from Sigma) (chemistry not given here)", "values": [
      {"measurement": "inhibition of isoproterenol (GPCR) stimulated glucose uptake by rictor knock down", "setting": "mouse rictor; 24 h after transfection, p=0.0105, n=3", "value": "fully inhibited"},
      {"measurement": "rictor protein after knock down", "setting": "mouse rictor; K2 transfection system", "value": "reduction of rictor protein"}
    ]}
  ]
}
